# Assay results reported in patent US6309842A, “Use of modified tethers in screening compound libraries” (Glaxo Wellcome Inc., priority 1997, dated 2001).
# Key:
# Assay type in all cases: cell-based
# [1] = target: T1, yeast α-factor receptor (STE2) (Saccharomyces cerevisiae, UniProt D6VTK4); test: Secretion of acid phosphatase into the medium by yeast ARY84 (pNPP assay); settings: for % of total acid-phosphatase activity in medium: 24 Hrs; for Induction ratio: growth selection, 500 nM vs no alpha-factor
# T1 construct: expressed in transfected cells; host or cells: yeast strain ARY84 (Δste2::ura3, plasmid pRS416(URA3)-STE2)
# T1 sequence (D6VTK4 1-431): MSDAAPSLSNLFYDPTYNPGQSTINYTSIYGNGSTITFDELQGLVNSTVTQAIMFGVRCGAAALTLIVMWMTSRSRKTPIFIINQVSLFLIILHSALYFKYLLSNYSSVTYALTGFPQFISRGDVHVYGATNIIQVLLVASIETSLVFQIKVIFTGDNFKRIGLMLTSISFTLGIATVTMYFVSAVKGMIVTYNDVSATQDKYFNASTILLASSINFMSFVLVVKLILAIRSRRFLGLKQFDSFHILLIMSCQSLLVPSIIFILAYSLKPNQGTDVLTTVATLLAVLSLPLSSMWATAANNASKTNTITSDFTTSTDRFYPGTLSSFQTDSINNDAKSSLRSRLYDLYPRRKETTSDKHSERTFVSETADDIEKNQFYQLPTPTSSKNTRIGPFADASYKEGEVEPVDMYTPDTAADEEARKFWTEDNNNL
# From the text: The strain used in these experiments is designated ARY84 (Mata prc1-407 prb1-1122 pep4-3 leu2, 3-112 ura3-52 trp1 far1::ura3 Δhis3::APT2 FUS1::HIS3 Δste2::ura3 Δsst2::ura3 Δpho5::TRP1 LEU2::pCMGy64(::FUS1-PHO3) [pRS416(URA3)-STE2]. This yeast is engineered to grow in the presence of an agonist, and also to secrete acid phosphatase as a result of agonist stimulation. The yeast strain used in these experiments bears a mutation in the SST2 gene to enhance sensitivity to agonist, an inactivating mutation in the FAR1 gene to allow growth in the presence of agonist and an inactivating mutation in the HIS3 gene. The FUS1 gene promoter stimulates transcription of two reporter genes. The first reporter gene is HIS3. 3-aminotriazole can be used to titrate out the background activity of the HIS3 gene product resulting in growth arrest due to histidine starvation. Stimulation of HIS3 transcription from the FUS1 promoter overcomes the inhibitory effect of 3-aminotriazole, allowing growth of agonist-stimulated yeast cells. The second reporter gene is PHO3 (which was obtained by PCR from yeast genomic DNA). This gene encodes secreted yeast acid phosphatase (see Johnston & Carlson, in The Molecular and Cellular Biology of the Yeast Saccharomyce, (eds. Jones et al., CSHP, 1992) Vol. 2, Ch. 5). STE2 encodes the yeast α-factor receptor. The mutation in the […] reduces the background of acid phosphatase secreted by the yeast, though this mutation may not be necessary.
# α-factor is the natural peptide agonist of the yeast α-factor receptor. The term "Growth selection" refers to growing the yeast in a defined medium (e.g., synthetic complete) (see Rose et al., Methods in Yeast Genetics: A Laboratory Course Manual (CSHLP, 1990)) lacking histidine and containing sufficient 3-aminotriazole to inhibit growth such that yeast only grow when the HIS3 gene product is expressed from the FUS1 promoter following stimulation of the STE2 receptor by α-factor. Lack of growth selection is achieved by leaving out the 3-aminotriazole and adding histdine.
# Acid phosphatase activity in the yeast growth medium was quantitated using a […] assay with the substrate para-nitrophenyl phosphate (pNPP), measuring the appearance of yellow color (Payne et al., Gene 163, 19-26 (1995). When yeast were grown under various growth conditions (+/-saturating (500 nM) concentrations of α-factor, between 26% and 69% of the total acid phosphatase activity is secreted into the medium (Table 1).
# [2] = target: T1, yeast α-factor receptor (STE2); test: ELISA of agonist-induced well marking by ARY84 (dephosphorylation of AF12402 tether, 3E7 detection); settings: for Well-marking activity: selective conditions
# Protocol: A plastic 96-well immunoassay plate (Beckman #373660) was coated with 0.41 μM streptavidin for 1 hour at 37° C. After washing, it was blocked with 1×PBS, 1% bovine serum albumin (BSA) for 1 hr at 37° C. After washing, 100 nM of AF12402 ((H)-(Phospho-Y)[…](biotin)(OH)) (SEQ ID NO:7) in 1×PBS, 0.1% BSA was incubated on the plate overnight at 4° C. The wells were washed with 1×PBS and a yeast culture containing ARY84 at a density of OD600 =0.1 in defined medium was added to the plate. The following conditions were tested: +growth selection, no α-factor; +growth selection, +500 nM α-factor.
# After addition of yeast the culture was either removed immediately (t=0; wells were filled with 1×PBS/ 0.1% BSA) or after 24 hr incubation at 30° C. At the end of the incubation, the wells were washed and developed using a standard protocol with 1 nM 3E7 antibody for the primary development (4° C., 1 hr) and 1/1000 diluted alkaline phosphatase conjugated goat anti-mouse antibody (Gibco) at 4° C. for 1 hr. Binding of antibodies was quantitated using a standard colorimetric alkaline-phosphatase reaction (see Cull et al., PNAS 89, 1865-1869 (1992)).
# [3] = target: T2, yeast alpha factor receptor (STE2) (Saccharomyces cerevisiae, UniProt D6VTK4); test: Secreted β-galactosidase reporter in yeast ARY 110 (FUS1 promoter); settings: ARY110 culture supernatants
# T2 construct: expressed in transfected cells; host or cells: yeast strain ARY 110 with plasmid pRS416-STE2
# T2 sequence (D6VTK4 1-431): T1 sequence (D6VTK4 1-431)
# From the text: A second expression system links the A. niger secreted β-galactosidasegene to the yeast mating pathway/FUS1 promoter induction system. Using the integrating beta-galactosidase encoding plasmid pCMGy69 in concert with the yeast alpha factor receptor (STE2) encoding plasmid, PRS416-STE2 (centomeric), a yeast strain designated ARY 110 was produced with the following genotype; (far1 his3 sst2 FUS1-HIS3 FUS1-sBeta-Gal STE2).
substance,measurement,setting,value
α-factor,Increase in acid phosphatase activity in the medium compared to absence of α-factor,"[1]; 500 nM α-factor, no growth selection, 24 hr",16-20 fold
same,% of total acid-phosphatase activity in medium,"[1]; alpha-factor +, growth selection +",63%
same,% of total acid-phosphatase activity in medium,"[1]; alpha-factor +, growth selection -",69%
same,Acid phosphatase activity in the medium,"[1]; 24 hours, selection +, alpha-factor +, clone #1",0.01279 OD405 units/minute
same,Acid phosphatase activity in the medium,"[1]; 24 hours, selection +, alpha-factor +, clone s3",0.02892 OD405 units/minute
same,Acid phosphatase activity in the medium,"[1]; 24 hours, selection -, alpha-factor +, clone #1",0.06481 OD405 units/minute
same,Acid phosphatase activity in the medium,"[1]; 24 hours, selection -, alpha-factor +, clone s3",0.1001 OD405 units/minute
same,Acid phosphatase activity in the medium,"[1]; 48 hr, growth selection (+10 mM 3-aminotriazole), 500 nM alpha-factor, clone #1",0.05768 OD405 units/minute
same,Acid phosphatase activity in the medium,"[1]; 48 hr, growth selection (+10 mM 3-aminotriazole), 500 nM alpha-factor, clone s3",0.1062 OD405 units/minute
same,Induction ratio,"[1]; 48 hr, clone #1",32.4
same,Induction ratio,"[1]; 48 hr, clone s3",58.7
same,Increase in acid phosphatase activity in the medium compared to absence of α-factor,"[1]; with growth selection, 48 hours, 0.5 µM",32-58 fold
same,Increase in OD405 compared to wells lacking α-factor,"[2]; 24 hr growth of yeast in the wells, 0.5 µM",4 fold
same,Well-marking activity,"[2]; T = 0, 500 nM alpha factor",0.11 OD405 units/minute
same,Well-marking activity,"[2]; T = 0, 500 nM alpha factor, listed as alpha factor",0.113 OD405 units/minute
same,Well-marking activity,"[2]; T = 24 Hrs, 500 nM alpha factor",0.8 OD405 units/minute
same,beta-galactosidase activity in supernatants over non-induced levels,[3],up to 79 fold
